Experimental data reported in patent publication US20240226245A9, “ZIP-IN TECHNOLOGY FOR ANTIVIRAL THERAPEUTIC NANOFORMULATIONS” (PAROLE LABORATORIES INC., priority 2022, published 2024).

Experiment: Net charge vs pH of the payload molecule
Type: physicochemical
Excerpt: Step 2: This is an essential step. For short payload molecules with a single ionizable group is enough to know pKa, so the useful pH range is pH>pKa+1 for acidic compounds and pH<pKa−1 for basic compounds. For payloads that are macromolecules with multiple different ionizable groups, such as peptides and proteins, must be measured or calculated net charge vs pH dependence for the full pH range (0-14). Provided three examples, refer to FIGS. 1 to 3.
For the vancomycin example, there are two ranges of pH where it is ionized (FIG. 1), one is pH 1 and below and the second range is pH 8 and up. Vancomycin at pH ˜1 acquires net charge +1, however at pH 12, the net charge is −4.5. Therefore, vancomycin must be encapsulated at pH 12 by the disclosed method as a “negatively charged payload”. Note, in the range of pH from 3 to 7.5 it is impossible to encapsulate vancomycin because it has no charge.
Both Cas9 and Cas13 endonucleases have to be encapsulated at pH<4 as “positively charged payloads”.

Compound: CN[C@H](CC(C)C)C(=O)N[C@H]1C(=O)N[C@@H](CC(N)=O)C(=O)N[C@H]2C(=O)N[C@H]3C(=O)N[C@H](C(=O)N[C@H](C(=O)O)c4cc(O)cc(O)c4-c4cc3ccc4O)[C@H](O)c3ccc(c(Cl)c3)Oc3cc2cc(c3O[C@@H]2O[C@H](CO)[C@@H](O)[C@H](O)[C@H]2O[C@H]2C[C@](C)(N)[C@H](O)[C@H](C)O2)Oc2ccc(cc2Cl)[C@H]1O [Vancomycin, vancomycin]
- net charge (pH 12 (FIG. 1)): −4.5
- net charge (pH from 3 to 7.5 (FIG. 1)): no charge
- net charge (pH ˜1 (FIG. 1)): +1
